We go through one molecule from paper PMC5915149, “The role of oxidative stress in activity of anticancer thiosemicarbazones” (Oncotarget, 2018).

Read-outs that look alike come from different tables or passages of the source.

For one data set, the system named is calf-thymus DNA (CT-DNA). Put plainly: Intercalation, absorption spectra with CT-DNA. Type of data set: binding. Put shortly: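 Compounds (25, 12.5, 6 and 3 µM, from DMSO stock) incubated with 18 µM CT-DNA in 10 mM Tris-HCl pH 7.9 for 1.5 h at 37 °C. UV-vis absorption spectra recorded over 200–500 nm; CT-DNA concentration set from A260 using ε 6600 M^–1cm^–1.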

The next data set has as its system cdc2. Put plainly: Western blot of cdc2. Type of data set: cell-based, human. Particulars: HCT116, 1 µM. Put shortly:
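HCT116 cells exposed to TSC (1 μM) or DOX (5 μM) for 24 or 48 h, lysed in RIPA with protease/phosphatase inhibitors. 20 μg protein per lane blotted, probed overnight at 4 °C with 1:1000 primary antibodies, β-actin loading control; ECL detection with densitometry, at least three repeats.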

The next data set deals with MCF-7. Put plainly: MTS antiproliferative assay, MCF-7 (with or without added metal ions). The format is cell-based, human. Put shortly: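 Cells seeded at 3,500/well, left 24 h at 37°C, then exposed to compounds for 96 h, optionally with 20 µM CuSO4, FeSO4 or FeCl3 added. Viability by MTS absorbance at 490 nm after 1 h; IC50 taken as concentration reducing proliferation to 50% of untreated control.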

In another data set the test system is Ndrg1. Nature of the data set: mRNA expression (Real-Time PCR) of Ndrg1. The format is cell-based, human. Particulars: HCT116, TSC 1 µM, 12 h.
For another data set, the system named is NHDF. Further details: method as in PMID 25329549. Particulars: 96 h incubation, MTS; cited from earlier work.

`S=C(NN=C(c1ccccn1)c1ccccn1)N1CCN(c2ccccc2)CC1` [Compound 3a]: in the data set on calf-thymus DNA (CT-DNA) (bound to CT-DNA), the “% hypochromism” value amounted to 28.2%. The Changes in absorbance entry in the data set on calf-thymus DNA (CT-DNA) (bound to CT-DNA) is “hypochromism”. Also, in the data set on calf-thymus DNA (CT-DNA) (bound to CT-DNA), the Δε was 4120.0 M⁻¹ cm⁻¹. Moreover, the blue/red shift in the data set on calf-thymus DNA (CT-DNA) (wavelengths of maximum absorption, compound alone vs DNA-bound) was found to be 5 nm. The “expression of cdc2 protein (densitometric analysis)” value with cdc2 was “increased the expression”. The IC50 in the data set on MCF-7 (96 h, 20 µM CuSO4 added, read-out: Activity - IC50 MCF-7+ Cu^2+) is 1.55 ± 0.55 nM; in the data set on MCF-7 (96 h, 20 µM FeCl3 added, read-out: Activity - IC50 MCF-7+ Fe^3+), 8.96 ± 1.81 nM; with MCF-7 (96 h incubation, MTS, read-out: Activity - IC50 MCF-7) it was 12 ± 2.04 nM; in the data set with NHDF, 1.73 ± 0.71 nM. The “improvement in cytotoxicity after interacting with Cu^2+” value with MCF-7 (MCF-7 cells, 20 µM CuSO4) is reported as “eight-fold”. Moreover, the “mRNA expression of Ndrg1” value in the data set on Ndrg1 is recorded as “significant increase”.
